O=c1[nH]cc(F)c(=O)[nH]1
solubility (mole fraction)
Conditions | 283.15 K | 288.15 K | 293.15 K | 298.15 K | 303.15 K | 308.15 K | 313.15 K | 318.15 K | 323.15 K
in DMF | 0.00344 | 0.00452 | 0.00556 | 0.00658 | 0.00779 | 0.00923 | 0.0109 | 0.0127 | 0.0143
in acetic acid | 0.000413 | 0.000496 | 0.000592 | 0.000722 | 0.000891 | 0.0011 | 0.00134 | 0.0017 | 0.0022
in ethanol | 0.00202 | 0.00224 | 0.00245 | 0.00268 | 0.00301 | 0.00331 | 0.00369 | 0.00402 | 0.00451
in formic acid | 0.000481 | 0.000568 | 0.000675 | 0.000827 | 0.000988 | 0.00121 | 0.00147 | 0.00186 | 0.00238
in isobutanol | 0.000629 | 0.000731 | 0.000854 | 0.00101 | 0.0012 | 0.00143 | 0.00173 | 0.00213 | 0.00261
in isopentanol | 0.000714 | 0.000823 | 0.00095 | 0.00112 | 0.00132 | 0.00156 | 0.00188 | 0.00232 | 0.00276
in isopropanol | 0.000549 | 0.000647 | 0.000762 | 0.000908 | 0.00107 | 0.00132 | 0.00161 | 0.00195 | 0.00247
in methanol | 0.00313 | 0.00357 | 0.0041 | 0.00464 | 0.00521 | 0.0058 | 0.00643 | 0.00713 | 0.00787
in n-butanol | 0.00101 | 0.00113 | 0.00128 | 0.00147 | 0.00168 | 0.00197 | 0.00232 | 0.00269 | 0.0031
in n-butyric acid | 0.000247 | 0.000296 | 0.000364 | 0.000444 | 0.000557 | 0.000696 | 0.000877 | 0.00111 | 0.00143
in n-pentanol | 0.000791 | 0.000902 | 0.00104 | 0.0012 | 0.0014 | 0.00166 | 0.00199 | 0.00226 | 0.00286
in n-propanol | 0.00184 | 0.00213 | 0.00242 | 0.00272 | 0.00303 | 0.00338 | 0.00376 | 0.00415 | 0.00465
in propionic acid | 0.000374 | 0.000454 | 0.000536 | 0.000668 | 0.000816 | 0.00101 | 0.0013 | 0.00166 | 0.00214
in water | 0.0011 | 0.00131 | 0.00153 | 0.00175 | 0.00198 | 0.00229 | 0.00256 | 0.00298 | 0.00345

— BigSolDB 2.1
